According to US8258134B2, “Pyridazinone glucokinase activators” (Hoffmann-La Roche Inc., priority 2008, dated 2012):

What was measured:
[1] = target: T1, Recombinant human liver GK1 (GST-GK) (Homo sapiens, UniProt P35557); test: Glucokinase in vitro assay (G6PDH-coupled NADH generation, OD340); format: biochemical; conditions: 5 mM D-glucose, 30° C., pH 7.1, 10% DMSO
T1 construct: made in house; host or cells: E. coli
T1 sequence (P35557 1-466 isoform P35557-2): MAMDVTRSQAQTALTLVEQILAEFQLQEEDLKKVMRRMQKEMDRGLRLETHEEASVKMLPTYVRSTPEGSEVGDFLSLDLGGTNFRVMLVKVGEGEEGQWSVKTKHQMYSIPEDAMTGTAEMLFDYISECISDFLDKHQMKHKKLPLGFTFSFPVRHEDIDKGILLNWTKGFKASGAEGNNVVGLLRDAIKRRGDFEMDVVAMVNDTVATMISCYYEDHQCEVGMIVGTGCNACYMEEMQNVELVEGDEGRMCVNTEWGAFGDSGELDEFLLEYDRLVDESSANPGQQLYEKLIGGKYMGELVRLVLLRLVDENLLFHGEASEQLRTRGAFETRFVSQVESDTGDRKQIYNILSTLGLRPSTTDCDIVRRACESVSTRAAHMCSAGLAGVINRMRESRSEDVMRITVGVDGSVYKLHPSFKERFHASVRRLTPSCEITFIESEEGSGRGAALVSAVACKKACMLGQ
Outline: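 GST-tagged recombinant GK1 expressed in E. coli, run at 30° C, pH 7.1 Hepes with 5 mM D-glucose, 1 mM ATP and 1.8 mM NAD, G6PDH-coupled. Compounds were in 10% DMSO final, with a 10 min pre-incubation before enzyme addition. OD340/min rate measured; SC1.5 is the activator concentration giving a 50% increase in activity.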

[2] = test system: Lean C57BL/6J mice; test: Glucokinase activator in vivo screen, blood glucose in lean mice; conditions: Mus musculus, vs control at 4 hours post 50 mg/kg oral dose, two hour fast, read-out: % glucose lowering @ 4 H
Protocol: Glucokinase Activator in vivo Screen Protocol in Lean and Diet Induced Obese Mice: Lean or Diet-induced Obese (DIO) C57BL/6J mice were orally dosed via gavage with Glucokinase (GK) activator following a two hour fasting period. Blood glucose determinations were made at various (e.g. 0, 1, 2, 4 and 8 hours post-oral gavage) times during the study.
C57Bl/6J mice were obtained from Jackson Laboratory (Bar Harbor, Me.) and were maintained in a light-dark cycle with lights on from 0600-1800 hr. For studies in lean mice, the mice were received at age ten weeks and given ad libitum access to control diet (LabDiet 5001 chow, PMI Nutrition, Brentwood, Mo.), and were at least age 11 weeks at the time of study. For studies in the DIO model, the mice were received at age five weeks and given ad libitum access to Bio-Serv F3282 High Fat Diet (Frenchtown, N.J.), and were at least age 16 weeks at the time of study. The experiments were conducted during the light phase of the light-dark cycle. Mice (n=6) are weighed and fasted for a two hour period prior to oral treatment. GK activators are formulated in Gelucire vehicle (Ethanol:Gelucire44/14:PEG400q.s. 4:66:30 v/w/v. For studies in lean mice, the mice were dosed orally with 5.0 μL per gram of body weight (i.e. 5 ml/kg×10.0 mg/ml formulation to equal a 50 mg/kg dose). For studies in DIO mice, the mice were dosed orally with 5.0 μL per gram of body weight (i.e. 5.0 ml/kg×5 mg/ml formulation to equal a 25 mg/kg dose). Immediately prior to dosing, a pre-dose (time zero) blood glucose reading was acquired by snipping off a small portion of the animal's tail and collecting 15 μL blood into a heparinized capillary tube for analysis. Following GK activator administration, additional blood glucose readings were taken at various time points post dose from the same tail wound. Results were interpreted by comparing the mean blood glucose values of vehicle treated mice with GK activator treated mice over the study period.
The Table below provides data for % glucose lowering of a representative number of compounds of the present invention vs control at 4 hours post 50 mg/kg dose in lean C57BL/6J mice: […]

Row | SMILES | SC1.5 average (concentration of activator that produced a 50% increase in the activity of GK) [1] [µM] | change in vivo at 50 mg/kg [2] [%]
1 | O=C(Nc1nccs1)C(CC1CCCC1)n1ncc(Oc2ccccc2)cc1=O (stereo not shown) [Example 2, 3-Cyclopentyl-2-(6-oxo-4-phenoxy-6H-pyridazin-1-yl)-N-thiazol-2-yl-propionamide] | 0.206 | -41.9
2 | CC(C)(O)Cn1ccc(NC(=O)C(CC2CCCC2)n2ncc(OC3CCCC3)cc2=O)n1 (stereo not shown) [Example 8, 3-Cyclopentyl-2-(4-cyclopentyloxy-6-oxo-6H-pyridazin-1-yl)-N-[1-(2-hydroxy-2-methyl-propyl)-1H-pyrazol-3-yl]-propionamide] | 1.323 | -5.6
3 | Cn1nc(NC(=O)C(CC2CCCC2)n2ncc(Oc3ccccc3C(F)(F)F)cc2=O)cc1Cl (stereo not shown) [Example 13, N-(5-Chloro-1-methyl-1H-pyrazol-3-yl)-3-cyclopentyl-2-[6-oxo-4-(2-trifluoromethyl-phenoxy)-6H-pyridazin-1-yl]-propionamide] | 0.179 | -45.8
4 | CC(C)(O)Cn1ccc(NC(=O)C(CC2CCCC2)n2ncc(Oc3cccc4c3CCCC4)cc2=O)n1 (stereo not shown) [Example 17, 3-Cyclopentyl-N-[1-(2-hydroxy-2-methyl-propyl)-1H-pyrazol-3-yl]-2-[6-oxo-4-(5,6,7,8-tetrahydro-naphthalen-1-yloxy)-6H-pyridazin-1-yl]-propionamide] | 0.113 | -35.2
5 | CC(C)(O)Cn1ccc(NC(=O)C(CC2CCCC2)n2ncc(Oc3ccccc3F)cc2=O)n1 (stereo not shown) [Example 19, 3-Cyclopentyl-2-[4-(2-fluoro-phenoxy)-6-oxo-6H-pyridazin-1-yl]-N-[1-(2-hydroxy-2-methyl-propyl)-1H-pyrazol-3-yl]-propionamide] | 0.14 | -49.2
6 | CC(C)(O)Cn1ccc(NC(=O)C(CC2CCCC2)n2ncc(Oc3ccccc3C3CCCC3)cc2=O)n1 (stereo not shown) [Example 22, 3-Cyclopentyl-2-[4-(2-cyclopentyl-phenoxy)-6-oxo-6H-pyridazin-1-yl]-N-[1-(2-hydroxy-2-methyl-propyl)-1H-pyrazol-3-yl]-propionamide] | 0.347 | -31.6
7 | Cc1ccccc1Oc1cnn(C(CC2CCCC2)C(=O)Nc2ccn(CC(C)(C)O)n2)c(=O)c1 (stereo not shown) [Example 24, 3-Cyclopentyl-N-[1-(2-hydroxy-2-methyl-propyl)-1H-pyrazol-3-yl]-2-(6-oxo-4-o-tolyloxy-6H-pyridazin-1-yl)-propionamide] | 0.174 | -62.1
8 | CC(C)(O)Cn1ccc(NC(=O)C(CC2CCCC2)n2ncc(Oc3cc(F)ccc3F)cc2=O)n1 (stereo not shown) [Example 33, 3-Cyclopentyl-2-[4-(2,5-difluoro-phenoxy)-6-oxo-6H-pyridazin-1-yl]-N-[1-(2-hydroxy-2-methyl-propyl)-1H-pyrazol-3-yl]-propionamide] | 0.356 | -30.2
9 | CC(C)(O)Cn1ccc(NC(=O)C(CC2CCCC2)n2ncc(Oc3c(F)cccc3F)cc2=O)n1 (stereo not shown) [Example 36, 3-Cyclopentyl-2-[4-(2,6-difluoro-phenoxy)-6-oxo-6H-pyridazin-1-yl]-N-[1-(2-hydroxy-2-methyl-propyl)-1H-pyrazol-3-yl]-propionamide] | 0.063 | -60.9

The next lines start with results.

Row | SC1.5 average (concentration of activator that produced a 50% increase in the activity of GK) [1] [µM] | SMILES | change in vivo at 50 mg/kg [2] [%]
10 | 0.206 | CC(C)(O)Cn1ccc(NC(=O)C(CC2CCCC2)n2ncc(Oc3ccccc3C(F)(F)F)cc2=O)n1 (stereo not shown) [Example 11, 3-Cyclopentyl-N-[1-(2-hydroxy-2-methyl-propyl)-1H-pyrazol-3-yl]-2-[6-oxo-4-(2-trifluoromethyl-phenoxy)-6H-pyridazin-1-yl]-propionamide] | -48.9
11 | 0.117 | COc1ccccc1Oc1cnn(C(CC2CCCC2)C(=O)Nc2ccn(CC(C)(C)O)n2)c(=O)c1 (stereo not shown) [Example 12, 3-Cyclopentyl-N-[1-(2-hydroxy-2-methyl-propyl)-1H-pyrazol-3-yl]-2-[4-(2-methoxy-phenoxy)-6-oxo-6H-pyridazin-1-yl]-propionamide] | -49.3
12 | 0.256 | Cn1ccc(NC(=O)C(CC2CCCC2)n2ncc(Oc3ccccc3C(F)(F)F)cc2=O)n1 (stereo not shown) [Example 14, 3-Cyclopentyl-N-(1-methyl-1H-pyrazol-3-yl)-2-[6-oxo-4-(2-trifluoromethyl-phenoxy)-6H-pyridazin-1-yl]-propionamide] | -46.7
13 | 0.227 | CC(C)(O)Cn1ccc(NC(=O)C(CC2CCCC2)n2ncc(Oc3ccccc3C#N)cc2=O)n1 (stereo not shown) [Example 29, 2-[4-(2-Cyano-phenoxy)-6-oxo-6H-pyridazin-1-yl]-3-cyclopentyl-N-[1-(2-hydroxy-2-methyl-propyl)-1H-pyrazol-3-yl]-propionamide] | -27.8
14 | 0.312 | O=C(O)c1ccc(NC(=O)C(CC2CCCC2)n2ncc(Oc3ccccc3C3CCCC3)cc2=O)nc1 (stereo not shown) [Example 71, 6-{3-Cyclopentyl-2-[4-(2-cyclopentyl-phenoxy)-6-oxo-6H-pyridazin-1-yl]-propionylamino}-nicotinic acid] | -61.7
